Experimental data: patent US6610846B1, “Heteroaromatic glucokinase activators” (Hoffman-La Roche Inc., priority 1999, dated 2003)

melting point [°C]	SMILES
61 to 64	O=C(Nc1nccs1)C(CC1CCCC1)c1cccc(S(=O)(=O)C(F)(F)F)c1 (stereo not shown) [Example 69, 3-Cyclopentyl-N-thiazol-2-yl-2-(3-trifluoromethanesulfonyl-phenyl)-propionamide]
194 to 195	O=C(Nc1nccs1)C(CC1CCCC1)c1ccc(C(F)(F)F)c(F)c1 (stereo not shown) [Example 70, 3-Cyclopentyl-2-(3-fluoro-4-trifluoromethyl-phenyl)-N-thiazol-2-yl-propionamide]
83 to 86	CS(=O)(=O)c1ccc(C(CC2CCCC2)C(=O)Nc2ccc(Br)cn2)cc1Br (stereo not shown) [Example 74, 2-(3-Bromo-4-methanesulfonyl-phenyl)-N-(5-bromo-pyridin-2-yl)-3-cyclopentyl-propionamide]
144 to 145	CCS(=O)(=O)c1ccc(C(CC2CCCC2)C(=O)Nc2ccccn2)cc1 (stereo not shown) [Example 78, 3-Cyclopentyl-2-(4-ethanesulfonyl-phenyl)-N-pyridin-2-yl-propionamide]
104 to 107	CS(=O)(=O)c1ccc(C(CC2CCCC2)C(=O)Nc2nccs2)cc1S(C)(=O)=O (stereo not shown) [Example 79, 2-(3,4-Bis-methanesulfonyl-phenyl)-3-cyclopentyl-N-thiazol-2-yl-propionamide]
81 to 83	O=C(Nc1nccnn1)C(CC1CCCC1)c1ccc(Cl)c(Cl)c1 (stereo not shown) [Example 81, 3-Cyclopentyl-2-(3,4-dichlorophenyl)-N-[1,2,4]triazin-3-yl-propionamide]
179 to 181	NS(=O)(=O)c1ccc(C(CC2CCCC2)C(=O)Nc2nccs2)cc1 (stereo not shown) [Example 82, 3-Cyclopentyl-2-(4-sulfamoyl-phenyl)-N-thiazol-2-yl-propionamide]
90 to 91	O=C(Nc1nncs1)C(CC1CCCC1)c1ccc(Cl)c(Cl)c1 (stereo not shown) [Example 83, 3-Cyclopentyl-2-(3,4-dichlorophenyl)-N-[1,3,4]thiadiazol-2-yl-propionamide]
64 to 66	N#Cc1ccc(C(CC2CCCC2)C(=O)Nc2nccs2)cc1 (stereo not shown) [Example 84(A), 2-(4-Cyano-phenyl)-3-cyclopentyl-N-thiazol-2-yl-propionamide]
163 to 165	CCCCS(=O)(=O)c1ccc(C(CC2CCCC2)C(=O)Nc2nccs2)cc1 (stereo not shown) [Example 86(A), 2-[4-(Butane-1-sulfonyl)-phenyl]-3-cyclopentyl-N-thiazol-2-yl-propionamide]
125 to 127	O=C(Nc1nccs1)C(CC1CCCC1)c1ccc(F)c(C(F)(F)F)c1 (stereo not shown) [Example 87(A), 3-Cyclopentyl-2-(4-fluoro-3-trifluoromethyl-phenyl)-N-thiazol-2-yl-propionamide]
134 to 136	O=C(Nc1nccs1)C(CC1CCCC1)c1cccc(C(F)(F)F)c1 (stereo not shown) [Example 88, 3-Cyclopentyl-N-thiazol-2-yl-2-(3-trifluoromethyl-phenyl)-propionamide]
86 to 89	CS(=O)(=O)c1ccc(C(CC2CCCC2)C(=O)Nc2ccccn2)cc1C(F)(F)F (stereo not shown) [Example 90, 3-Cyclopentyl-2-(4-methanesulfonyl-3-trifluoromethyl-phenyl)-N-pyridin-2-yl-propionamide]
113.8 to 117.5	O=C(Nc1ccc(C(F)(F)F)cn1)[C@H](CC1CCCC1)c1ccc(Cl)c(Cl)c1 [Example 101, 3-Cyclopentyl-2(R)-(3,4-dichloro-phenyl)-N-(5-trifluoromethyl-pyridin-2-yl)-propionamide]
229.1 to 231.7	CNC(=O)c1ccc(NC(=O)C(CC2CCCC2)c2ccc(Cl)c(Cl)c2)nc1 (stereo not shown) [Example 103, 6-[3-Cyclopentyl-2-(3,4-dichloro-phenyl)-propionylamino]-N-methyl-nicotinamide]
46.5 to 51.3	O=C(Nc1cnccn1)C(CC1CCCC1)c1ccc(Cl)c(Cl)c1 (stereo not shown) [Example 104, 3-Cyclopentyl-2-(3,4-dichloro-phenyl)-N-pyrazin-2-yl-propionamide]

melting point [°C]	SMILES
107.3 to 109.9	O=C(Nc1ccc(Br)cn1)[C@H](CC1CCCC1)c1ccc(Cl)c(Cl)c1 [Example 105, N-(5-Bromo-pyridin-2-yl)-3-cyclopentyl-2(R)-(3,4-dichloro-phenyl)-propionamide]
171 to 174	O=C(Nc1nccs1)C(CC1CCCC1)c1cccc([N+](=O)[O-])c1 (stereo not shown) [Example 109, 3-Cyclopentyl-2-(3-nitrophenyl)-N-thiazol-2-yl-propionamide]
44 to 45	COc1cccc(C(CC2CCCC2)C(=O)Nc2nccs2)c1 (stereo not shown) [Example 110, 3-Cyclopentyl-2-(3-methoxy-phenyl)-N-thiazol-2-yl-propionamide]
177 to 179	O=C(Nc1nccs1)C(CC1CCCC1)c1cccc(O)c1 (stereo not shown) [Example 111, 3-Cyclopentyl-2-(3-hydroxy-phenyl)-N-thiazol-2-yl-propionamide]
50 to 52	COc1ccc(C(CC2CCCC2)C(=O)Nc2nccs2)cc1OC (stereo not shown) [Example 113, 3-Cyclopentyl-2-(3,4-dimethoxy-phenyl)-N-thiazol-2-yl-propionamide]
170 to 173	O=C(Nc1nccs1)C(CC1CCCC1)c1ccc(O)c(O)c1 (stereo not shown) [Example 114, 3-Cyclopentyl-2-(3,4-dihydroxy-phenyl)-N-thiazol-2-yl-propionamide]
166 to 167	COc1ccc(C(CC2CCCC2)C(=O)Nc2nccs2)cc1 (stereo not shown) [Example 115, 3-Cyclopentyl-2-(4-methoxy-phenyl)-N-thiazol-2-yl-propionamide]
198 to 200	O=C(Nc1nccs1)C(CC1CCCC1)c1ccc(O)cc1 (stereo not shown) [Example 116, 3-Cyclopentyl-2-(4-hydroxy-phenyl)-N-thiazol-2-yl-propionamide]
54 to 56	COC(=O)c1ccc(C(CC2CCCC2)C(=O)Nc2nccs2)cc1 (stereo not shown) [Example 117, 4-[2-Cyclopentyl-1-(thiazol-2-ylcarbamoyl)-ethyl]-benzoic acid methyl ester]
51 to 53	COc1ccc(C(CC2CCCC2)C(=O)Nc2nccs2)cc1F (stereo not shown) [Example 118, 3-Cyclopentyl-2-(3-fluoro-4-methoxy-phenyl)-N-thiazol-2-yl-propionamide]
199 to 201	O=C(Nc1nccs1)C(CC1CCCC1)c1ccc(O)c(F)c1 (stereo not shown) [Example 119, 3-Cyclopentyl-2-(3-fluoro-4-hydroxy-phenyl)-N-thiazol-2-yl-propionamide]
251 to 255	O=C(O)c1ccc(NC(=O)C(CC2CCCC2)c2cccc(Cl)c2)nc1 (stereo not shown) [Example 120, 6-[2-(3-Chloro-phenyl)-3-cyclopentyl-propionylamino]-nicotinic acid]
128 to 130	CSc1ccc([C@@H](CC2CCCC2)C(=O)Nc2cnccn2)cc1 [Example 126, 3-Cyclopentyl-2(R)-(4-methylsulfanyl-phenyl)-N-pyrazin-2-yl-propionamide]
75 to 80	CS(=O)(=O)c1ccc([C@@H](CC2CCCC2)C(=O)Nc2cnccn2)cc1 [Example 127, 3-Cyclopentyl-2(R)-(4-methylsulfonyl-phenyl)-N-pyrazin-2-yl-propionamide]
73 to 75	CS(=O)(=O)c1ccc(C(CC2CCCC2)C(=O)Nc2ncc(Br)s2)cc1 (stereo not shown) [Example 132, N-(5-Bromo-thiazol-2-yl)-3-cyclopentyl-2-(4-methanesulfonyl-phenyl)-propionamide]
